Measured values from patent US9771370B2, “Compounds for the inhibition of indoleamine-2,3-dioxygenase” (Merck Patent GmbH, priority 2014, dated 2017).

What follows are molecules tested against Recombinant human IDO (Homo sapiens, UniProt P14902) (assay: Bridge-IT tryptophan fluorescence assay of human IDO-1 inhibition). Conditions: recombinant human IDO 7.5 nM, L-tryptophan.
Assay type: biochemical
Experimental: Measurement of human IDO-1 inhibition is performed in 384 well format using the Bridge-IT® tryptophan Fluorescence Assay (Mediomics, LLC, St. Louis, Mo., U.S.A.).
The reaction is initiated by the addition of L-Tryptophan (Sigma) at a final concentration of 100 μM in assay buffer. After 90 minutes of incubation at 37° C., the reaction is stopped by transferring 1 μl of the reaction mixture to 9 μl of Bridge-IT assay solution A. After 30 min of incubation at 30° C., the fluorescence intensity was measured at λex=485 nm and λem=665 nm using Perkin Elmer Envision® Multilabel Reader.
Measurement of human IDO-1 inhibition was performed in 384-well format using the BRIDGE-IT® tryptophan Fluorescence Assay (Mediomics, LLC, St. Louis, Mo., U.S.A.). […] After 30 minutes of pre-incubation at 25° C., the reaction was initiated by the addition of L-Tryptophan (Sigma) at a final concentration of 50 μM in assay buffer. After 60 minutes of incubation at 25° C., the reaction is stopped by transferring 1 μl of the reaction mixture to 9 μl of Bridge-IT assay solution A. After 30 min of incubation at 30° C., the fluorescence intensity was measured at λex=485 nm and λem=665 nm using Perkin Elmer ENVISION® Multilabel Reader.

Chain of Recombinant human IDO (P14902 whole entry): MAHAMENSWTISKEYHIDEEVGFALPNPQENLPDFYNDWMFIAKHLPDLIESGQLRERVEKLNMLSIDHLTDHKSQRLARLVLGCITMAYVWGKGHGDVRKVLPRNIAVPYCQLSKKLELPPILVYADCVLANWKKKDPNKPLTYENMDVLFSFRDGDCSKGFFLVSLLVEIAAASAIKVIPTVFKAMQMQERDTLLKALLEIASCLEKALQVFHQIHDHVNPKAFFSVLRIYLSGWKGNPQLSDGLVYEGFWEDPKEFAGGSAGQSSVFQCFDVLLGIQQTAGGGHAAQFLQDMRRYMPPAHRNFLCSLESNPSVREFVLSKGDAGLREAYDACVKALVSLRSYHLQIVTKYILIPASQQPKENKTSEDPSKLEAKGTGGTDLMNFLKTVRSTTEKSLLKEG

Row | Compound | IC50 [nM]
1 | NS(=O)(=O)C1CCC(F)(CCC2c3ccccc3-c3cncn32)CC1 (single isomer, unassigned) [Compound 121b, 4-fluoro-4-[2-[5H-imidazo[4,3-a]isoindol-5-yl]ethyl]cyclohexane-1-sulfonamide] | > 1000
2 | OC1(C2CCC(F)(CCC3c4c(Cl)cccc4-c4cncn43)CC2)CC1 (mixture of isomers) [Compound 106a, 1-[4-(2-[6-chloro-5H-imidazo[4,3-a]isoindol-5-yl]ethyl)-4-fluorocyclohexyl]cyclopropan-1-ol] | < 100
3 | OC(CC1c2cc(F)ncc2-c2cncn21)C1CCCCC1 (single isomer, unassigned) [Compound 24a, 1-cyclohexyl-2-[10-fluoro-4,6,11-triazatricyclo[6.4.0.0^[2,6]]dodeca-1(8),2,4,9,11-pentaen-7-yl]ethan-1-ol] | > 1000
4 | OC(CC1c2nc(Cl)ccc2-c2cncn21)C1CCCCC1 (single isomer, unassigned) [Compound 55b, 2-[10-chloro-4,6,9-triazatricyclo[6.4.0.0^[2,6]]dodeca-1(8),2,4,9,11-pentaen-7-yl]-1-cyclohexylethan-1-ol] | > 1000
5 | NC(=O)CC1CCC(F)(CCC2c3c(F)cccc3-c3cncn32)CC1 (single isomer, unassigned) [Compound 116c, 2-[4-Fluoro-4-[2-[6-fluoro-5H-imidazo[4,3-a]isoindol-5-yl]ethyl]cyclohexyl]acetamide] | > 1000
6 | OCC1CCC(F)(CCC2c3c(Cl)cccc3-c3cncn32)CC1 (mixture of isomers) [Compound 105b, [4-[2-[6-chloro-5H-imidazo[4,3-a]isoindol-5-yl]ethyl]-4-fluorocyclohexyl]methanol] | > 1000
7 | NC(=O)C1CCC(F)(CCC2c3c(Cl)cccc3-c3cncn32)CC1 (single isomer, unassigned) [Compound 99b, 4-[2-[6-chloro-5H-imidazo[4,3-a]isoindol-5-yl]ethyl]-4-fluorocyclohexane-1-carboxamide] | 100 to 1000
8 | CC(C)(O)C1CCC(F)(CCC2c3c(Cl)cccc3-c3cncn32)CC1 (mixture of isomers) [Compound 107a, 2-[4-(2-[6-chloro-5H-imidazo[4,3-a]isoindol-5-yl]ethyl)-4-fluorocyclohexyl]propan-2-ol] | > 1000
9 | Fc1cccc2c1C(CC(F)C1CCCCC1)n1cncc1-2 (single isomer, unassigned) [Compound 98a, 5-[2-cyclohexyl-2-fluoroethyl]-6-fluoro-5H-imidazo[4,3-a]isoindole] | 100 to 1000
10 | COc1ccc2c(n1)C(CCC1(F)CCC(F)(F)CC1)n1cncc1-2 (single isomer, unassigned) [Compound 34a, 10-methoxy-7-[2-(1,4,4-trifluorocyclohexyl)ethyl]-4,6,9-triazatricyclo[6.4.0.0^[2,6]]dodeca-1(8),2,4,9,11-pentaene] | < 100
11 | O=C(O)C1CCC(F)(CCC2c3ccccc3-c3cncn32)CC1 (single isomer, unassigned) [Compound 82a, 4-fluoro-4-(2-[5H-imidazo[4,3-a]isoindol-5-yl]ethyl)cyclohexane-1-carboxylic acid] | < 100

Now from value to molecule:

Row | IC50 [nM] | Compound
12 | > 1000 | OC(CC1c2ncccc2-c2cncn21)C1CCOCC1 (single isomer, unassigned) [Compound 92c, 1-(oxan-4-yl)-2-[4,6,9-triazatricyclo[6.4.0.0^[2,6]]dodeca-1(8),2,4,9,11-pentaen-7-yl]ethan-1-ol]
13 | > 1000 | CC1(C)CCC(C(O)CC2c3nc(F)ccc3-c3cncn32)CC1 (single isomer, unassigned) [Compound 25b, 1-(4,4-dimethylcyclohexyl)-2-[10-fluoro-4,6,9-triazatricyclo[6.4.0.0^[2,6]]dodeca-1(8),2,4,9,11-pentaen-7-yl]ethan-1-ol]
14 | < 100 | Oc1cccc2c1-c1cncn1C2CCC1(F)CCCCC1 (single isomer, unassigned) [Compound 43b, 5-(2-(1-fluorocyclohexyl)ethyl)-5H-imidazo[5,1-a]isoindol-9-ol]
15 | > 1000 | OCC1CCC(F)(CCC2c3ccccc3-c3cncn32)CC1 (single isomer, unassigned) [Compound 59d, [4-fluoro-4-[2-[5H-imidazo[4,3-a]isoindol-5-yl]ethyl]cyclohexyl]methanol]
16 | > 1000 | OC1CCC(F)(CCC2c3ncccc3-c3cncn32)CC1 (single isomer, unassigned) [Compound 8b, 4-fluoro-4-(2-{4,6,9-triazatricyclo[6.4.0.0^[2,6]]dodeca-1(8),2,4,9,11-pentaen-7-yl}ethyl)cyclohexan-1-ol]
17 | > 1000 | FC1(CCC2c3ncccc3-c3cncn32)CCOCC1 (single isomer, unassigned) [Compound 93b, 7-[2-(4-fluorooxan-4-yl)ethyl]-4,6,9-triazatricyclo[6.4.0.0^[2,6]]dodeca-1(8),2,4,9,11-pentaene]
18 | < 100 | CC(C)(O)C1CCC(F)(CCC2c3ccccc3-c3cncn32)CC1 (single isomer, unassigned) [Compound 61c, 2-[4-fluoro-4-[2-[5H-imidazo[4,3-a]isoindol-5-yl]ethyl]cyclohexyl]propan-2-ol]
19 | > 1000 | OC(CC1c2ncccc2-c2cncn21)c1ccccc1 (stereo not drawn) [Compound 12b, 1-Phenyl-2-[4,6,9-triazatricyclo[6.4.0.0^[2,6]]dodeca-1(8),2,4,9,11-pentaen-7-yl]ethan-1-ol]
20 | 100 to 1000 | FC1(CCC2c3c(Cl)cccc3-c3cncn32)CCOCC1 (single isomer, unassigned) [Compound 96b, 6-chloro-5-[2-(4-fluorooxan-4-yl)ethyl]-5H-imidazo[4,3-a]isoindole]
21 | > 1000 | OC(CC1c2ncccc2-c2cncn21)C1CCOCC1 (single isomer, unassigned) [Compound 92a, 1-(oxan-4-yl)-2-[4,6,9-triazatricyclo[6.4.0.0^[2,6]]dodeca-1(8),2,4,9,11-pentaen-7-yl]ethan-1-ol]
22 | > 1000 | FC1(F)CCC(F)(CCC2c3c(Cl)cccc3-c3cncn32)CC1 (single isomer, unassigned) [Compound 72a, 6-chloro-5-[2-(1,4,4-trifluorocyclohexyl)ethyl]-5H-imidazo[4,3-a]isoindole]
23 | > 1000 | Fc1ccc(F)c2c1-c1cncn1C2CCC1(F)CCCCC1 (single isomer, unassigned) [Compound 37a, 6,9-difluoro-5-(2-(1-fluorocyclohexyl)ethyl)-5H-imidazo[5,1-a]isoindole]
24 | 100 to 1000 | FC(F)(CC1c2ccccc2-c2cncn21)C1CCCCC1 (racemic) [Compound 64, 5-(2-cyclohexyl-2,2-difluoroethyl)-5H-imidazo[4,3-a]isoindole]
25 | > 1000 | OC(CC1c2ncncc2-c2cncn21)C1CCCCC1 (single isomer, unassigned) [Compound 67b, 1-cyclohexyl-2-[4,6,9,11-tetraazatricyclo[6.4.0.0^[2,6]]dodeca-1(8),2,4,9,11-pentaen-7-yl]ethan-1-ol]
26 | < 100 | OC1(C2CCC(F)(CCC3c4ccccc4-c4cncn43)CC2)CC1 (single isomer, unassigned) [Compound 60a, 1-[4-fluoro-4-[2-[5H-imidazo[4,3-a]isoindol-5-yl]ethyl]cyclohexyl]cyclopropan-1-ol]
27 | < 100 | FC1(CCC2c3ccccc3-c3cncn32)CCOCC1 (single isomer, unassigned) [Compound 94b, 5-[2-(4-fluorooxan-4-yl)ethyl]-5H-imidazo[4,3-a]isoindole]
